We go through 2 compounds from patent publication US20250282715A1, “SOLID STATE FORMS OF MIRDAMETINIB AND PROCESS FOR PREPARATION THEREOF” (Assia Chemical Industries Ltd., priority 2022, published 2025).

What all share (assay type): physicochemical
A short description of data set [1]: Thermal stability (oven heating, XRPD analysis). The note with it: heated in an oven at 100° C. for 30 minutes. The procedure: (§1) A sample, after being powdered in a mortar and pestle, is applied directly on a silicon plate holder. The X-ray powder diffraction pattern was measured with Philips X'Pert PRO X-ray powder diffractometer, equipped with Cu irradiation source=1.54184 Å (Ångström), X'Celerator (2.022° 20) detector. Scanning parameters: angle range: 3-40 deg., step size 0.0167, time per step 37 s, continuous scan.
Samples of Mirdametinib oxalic acid co-crystal Form A (100 mg) and Form IV were heated in an oven at 100° C. for 30 minutes.

Data set [2] in a line: Stability to compression (2 tons, XRPD analysis). The note with it: pressure of 2 tons for 2 minutes, hydraulic press. The procedure:
as §1
A sample of Mirdametinib oxalic acid co-crystal Form A was subjected to a pressure of 2 tons for 2 minutes (Atlas® Autopress hydraulic press, set to 2 tons).

Data set [3] can be described thus: Hygroscopicity (water absorption at up to 90% RH). The note with it: about 25° C.

For the compound `O=C(NOC[C@H](O)CO)c1ccc(F)c(F)c1Nc1ccc(I)cc1F` [Mirdametinib form IV, N-[(2R)-2,3-dihydroxypropoxyl]-3,4-difluoro-2-[(2-fluoro-4-iodophenyl)amino]benzamide, reference compound], in data set [1], the XRPD after heating entry is “form IV + form I”.
Turning to `O=C(NOC[C@H](O)CO)c1ccc(F)c(F)c1Nc1ccc(I)cc1F.O=C(O)C(=O)O`, the figures for the XRPD after heating entry in data set [1] and in data set [1] (listed as Mirdametinib oxalic acid co-crystal Form A) were “Form A” and “no conversion to other polymorph forms”, respectively. In data set [2], the “Stability to compression: XRPD analysis after mechanical stress” value is “resistant to amorphization”. For the same compound, the “Hygroscopicity / water absorption” value in data set [3] is recorded as “little or no water absorption”.
